*1 amine or outer side, *2 acyl side, *3 side chain or, on linkers, in order; H or OH if unused. [ ]: non-standard residue; d: D form. PEG (Jeffamine) = not defined here; Suc = O=C(CCC(=O)[*:2])[*:1]

Assay [1] concerns dystrophic muscles of the mdx mouse. Description: Intramuscular injection into dystrophic muscle of mdx mice, tetanic force. It is filed as in vivo. The settings on record: i.m. two per week for three weeks. The protocol:
Greater increases, of up to around 35% (FIGS. 3A, 3B), were recorded for intramuscular injections (two per week for three weeks) in the dystrophic muscles of the mdx mouse, which has the same type of mutation as that in human Duchenne muscular dystrophy.

Assay [2] concerns rat organotypic hippocampal cultures. Description: TBH oxidative stress in rat organotypic hippocampal cultures, PI-stained cell death. It is filed as cell-based. To be noted: for time for which the neuroprotective effect was observed: rat hippocampal slices after TBH challenge; for protection against TBH-induced cell death: rat hippocampal slices, 24 hours, peptide 10 ng/ml as printed. The procedure:
Hippocampal slices were prepared from 7-10 days old Wistar rats according to the method of Stoppini et al (1991) with minor modifications according to Sarnowska (2002). Briefly, rats were anaesthetised with Vetbutal, ice-cooled and decapitated. Brains were quickly removed to ice-cold working solution pH 7.2: 96% of HBSS/HEPES-(Ca2^+ and Mg2^+ free) containing 2 mmol/L L-glutamine, 5 mg/ml glucose, 1% amphotericine B, 0.4% penicillin-streptomycin. Hippocampi were separated and cut into 400 μm slices using McIlwain tissue chopper. […] Four selected slices were settled on each membrane. Slices were cultivated for two weeks at 32° C. in 5% CO2 atmosphere of 100% humidity. The viability of the slices was checked daily under the light microscopy and evaluated additionally on the day of experiment by propidium iodide staining and observed under fluorescent microscope (Zeiss Axiovert 25) with MC-10095 camera (Carl Zeiss Jena GmbH) in order to record initial PI uptake (Sarnowska, 2002).
Oxidative stress was induced after 14 days in culture by adding 30 mM TBH ([…]) for 3 hours. After that time the slices were transferred to the fresh culture medium. Resulting cell death was assessed 24 and 48 h after the beginning of the experiment.
In order to investigate a pathway in which the MGF acts, a specific anti-IGF-1 receptor (AB-1) blocking antibody (Oncogene) was included in the medium 1 hour before the slices were exposed to TBH and MGF or IGF-1 peptide. The concentration of the antibody (1000 ng/ml) was used according to the manufacturer's recommendation.
To obtain detailed images of the slices, a confocal laser scanning microscope (Zeiss LSM 510) was used. A helium-neon laser (543 nm) was used for the excitation of propidium iodide (PI). […] Quantitative measurement of tissue deterioration was performed using image analyser KS 300 (Carl Zeiss Jena GmbH).
Cell damage was quantified on fluorescence images of PI-stained cultures 24 and 48 hours after TBH challenge. The relative extent of cell death was calculated from each standardized CA1 region as follows: % of dead cells=(experimental fluorescent intensity (FI)−background FI)/(maximal FI−background FI)×100, where maximal FI was obtained by killing all cells with exposure to 100 mM glutamate.
All the measurements were repeated for 5 independent culture preparations and 8 slices were used for each experimental condition. Statistical significance of the differences between the results was calculated using one-way Anova followed by Dunnet's test, (GraphPad Prism 3.02).
Rat brain slices were isolated following induction of localized damage by TBH (tert-butyl hydroperoxide) as discussed above. The resulting cell death in treated and non-treated brain slices was determined. […]

The subject of assay [3] is primary cultures derived from congenital muscular dystrophy (CMD). Briefly: Desmin positive cell proliferation, primary cultures from congenital muscular dystrophy (CMD). It is filed as cell-based, human. The settings on record: for desmin positive cells as percentage of total cells: peptide alone, 10 ng/ml, mean±s.d. The text has this:
Human primary muscle cell cultures were isolated as previously described [Lewis et al., 2000; Sinanan et al., 2004]. Briefly, following informed consent, craniofacial (masseter) muscle biopsies were obtained from healthy adult and CMD patients during elective surgery at the Eastman and Middlesex Hospitals, London, UK. Human lower limb (vastus lateralis) muscle samples were obtained from consenting, adult healthy, FSHD and ALS patients by needle biopsy under local anaesthesia at the Royal Free Hospital, London, UK. Biopsies were pooled from several patients with the same disorder to obtain sufficient cell numbers in the primary cultures. These were washed with antibiotic (penicillin, 100 U/ml; streptomycin, 100 μg/ml; fungizone, 2.5 μg/ml; Invitrogen) supplemented DMEM (high glucose; Invitrogen), scissor-minced and tissue fragments plated into 0.2% gelatin-coated (Sigma-Aldrich) T150 cm^2 culture flasks (Helena Biosciences). Explant cultures were incubated in serum-containing Growth Media (sGM), composed of DMEM, 20% FCS (PAA Laboratories), penicillin (100 U/ml) and streptomycin ([…]) (Invitrogen), and maintained at 37° C. in humidified 95% air with 5% CO2. The first wave of migration of mononuclear cells from the explant was designated the […]-wave and this population was used throughout this study. Migratory human muscle cell were enzymatically harvested using trypsin-EDTA (Invitrogen) and subcultured in sGM until 70-80% confluency. Passage number x (Px), was defined as the xth sequential harvest of subconfluent cells. All experiments were performed using P3-5 cohorts. The expanded cells were then stored under cryogenic conditions until they were used in the experiments described below. At least 6 runs were made for each of the treatments used for each diseased muscle culture as well as for the two types of healthy muscle.
Assessment of the number of myogenic precursors was performed as described previously (Sinanan et al., 2004). Cells were re-plated on gelatin-coated (0.2%) 13 mm coverslips at an initial density of 4.5×10^3 cells cm^−2. […]
At the appropriate time-points, cells were fixed with methanol for 10 min (−20° C.), followed by detergent permeabilization with 0.5% Triton-X100 for 10-15 min. […] Cell-associated fluorescence and morphology, were visualized by epi-fluorescence and Leica Modulation Contrast (LMC) microscopy respectively, using an inverted Leica DMIRB microscope equipped with Leica FW4000 image processing software. For the proliferation assay, all blue and green fluorescent positive cells were counted in a field. […]

In the case of “IGF-I: IGF-I receptor binding domain encoded by Exons 3 and 4, common to all splice variants, approximately 70 amino acids [reference compound]”, in assay [1], the “percentage change in tetanic force (increase in muscle strength)” value is on record as “around 5%”. In assay [2], the “time for which the neuroprotective effect was observed” value is listed as “up to 24 hours” and the “protection against TBH-induced cell death” value is recorded as 72%. Besides, in assay [3], the “desmin positive cells as percentage of total cells” value was 13.2±1.7%.

“stabilised peptide: SEQ ID NO: 15 with D-Arginine at positions 14 and 15, N-terminus attached to PEG (Jeffamine) via succinic acid bridge, amidated at C-terminus ({PEG (Jeffamine)-Suc}-YQPPSTNKNTKSQ[dR][dR]KGSTFEEHK-NH2; reading uncertain)”: the “percentage change in tetanic force (increase in muscle strength)” value in assay [1] is no more than 35%. Besides, in assay [2], the “time for which the neuroprotective effect was observed” value is no less than 48 h and the “protection against TBH-induced cell death” value amounted to 85%. The “desmin positive cells as percentage of total cells” value in assay [3] was found to be 17.5±1.6%. In assay [3] (stabilised peptide in combination with IGF-I), the “desmin positive cells as percentage of total cells, IGF-I added” value amounted to 13.1±1.2%. For the same substance, in assay [3] (stabilised peptide plus Ab-1), the “desmin positive cells as percentage of total cells, plus anti-IGF-I receptor antibody Ab-1” value is listed as 16.7±1.8%.

The values are drawn from patent US20060211606A1, “Peptides” (priority 2005, published 2006).
